Assay results reported in article PMC12142043, “Cell-based high-content approach for SARS-CoV-2 neutralization identifies unique monoclonal antibodies and PI3K pathway inhibitors” (Frontiers in Cell and Developmental Biology, 2025).

Assays:
[1] = system: SARS-CoV-2 (USA-WA1/2020) in Calu-3 cells; test: microbe, parasite or virus in culture; type: cell-based; conditions: for EC50: Severe acute respiratory syndrome coronavirus 2, Calu-3, 48 h, above 30 μM reported as >30, read-out: EC50 (μM) dsRNA; for Selectivity index: fold: cell count EC50 over dsRNA EC50
Calu-3 cells = test: cells; conditions: Homo sapiens, Calu-3, read-out: EC50 (μM) Cell count
[2] = system: SARS-CoV-2 (USA-WA1/2020) in Calu-3 cells; type: cell-based; conditions: Calu-3, 48 h; for dsRNA signal, AU High: high dose (10 µM); for dsRNA signal, AU Low: low dose (100 nM)

| Molecule | EC50 [1] | Selectivity index [1] | EC50 (Calu-3 cells) | dsRNA signal, AU High [2] | dsRNA signal, AU Low [2] |
| --- | --- | --- | --- | --- | --- |
| C[C@@H](NC(=O)c1ncnc(N)c1Cl)c1ncc(C(=O)Nc2cc(C(F)(F)F)c(Cl)cn2)s1 [MLN 2480] | 0.0998 µM | >300 | > 30 µM |  |  |
| O=S(=O)(c1cccc2cnccc12)N1CCCNCC1 [Fasudil] | 0.0124 µM | 98.072 | 1.22 µM |  |  |
| O=c1[nH]c2ccccc2n1C1CCN(Cc2ccc(-c3nc4cc5[nH]cnc5cc4nc3-c3ccccc3)cc2)CC1 [AKT inhibitor VIII] |  |  |  | 14379.0 AU | 47838.1 AU |
| CN(C[C@@H]1COCCO1)S(=O)(=O)Nc1ccc2ccc3ncc(-c4cnn(C)c4)cc3c(=O)c2c1 [MK-2461] |  |  |  | 19211.6 AU | 2226.3 AU |
| N#Cc1ccc2[nH]c(O)c(-c3ccc(CN4CCOCC4)cn3)c2c1 [AZD1080] |  |  |  | 30210.5 AU | 12322.5 AU |
| CCOC(=O)c1cc(O)c(O)c(O)c1 [Ethyl gallate] |  |  |  | 180.5 AU | 60976.1 AU |
| N#Cc1c(NC(=O)c2cccc3ccccc23)sc2c1CCCC2 [TCS JNK 5a] |  |  |  | 1144.9 AU | 17159.4 AU |
| O=C(NCCN1CCCC1)c1cc(-c2ccc(CN3CCOCC3)cc2)nc2ccc(F)cc12 [DDD107498] |  |  |  | 38942.1 AU | 5409.3 AU |
| Cc1ccc([N+](=O)[O-])cc1S(=O)(=O)N(C)/N=C/c1cnc2ccc(Br)cn12 [PIK-75] |  |  |  | 6934.4 AU | 3754.5 AU |
| Cl.c1ccc2c(-c3cnn4cc(-c5ccc(N6CCNCC6)cc5)cnc34)ccnc2c1 [LDN193189 Hydrochloride] |  |  |  | 42525.8 AU | 24650.0 AU |
| COc1ccc(CNC(=O)Nc2ncc([N+](=O)[O-])s2)cc1 [AR-A014418] |  |  |  | 79.4 AU | 22152.5 AU |
| CN1CCC(COc2cnc(-c3cccc(Cn4nc(-c5cccc(C#N)c5)ccc4=O)c3)nc2)CC1 [EMD-1214063] |  |  |  | 14120.6 AU | 47689.1 AU |
| O=C(CCl)c1c[nH]c2ccccc12 [3CAI] |  |  |  | 6736.4 AU | 43810.0 AU |
| O=C(O)[C@H]1O[C@@H](Oc2cc3oc(-c4ccc(O)cc4)cc(=O)c3c(O)c2O)[C@H](O)[C@@H](O)[C@@H]1O [Scutellarin] |  |  |  | 1769.9 AU | 52840.4 AU |
| O=C1NC(=O)/C(=C/c2cccc(C(F)(F)F)c2)S1 [SMI-4a] |  |  |  | 0.0 AU | 12244.4 AU |
| AZD4547 |  |  |  | 14827.8 AU | 3634.0 AU |
| CCS(=O)(=O)N1CC(CC#N)(n2cc(-c3ncnc4[nH]ccc34)cn2)C1 [Baricitinib phosphate] |  |  |  | 2518.9 AU | 32442.1 AU |
| CCOC(=O)c1cnc2ccc(-c3cncc(NS(=O)(=O)c4ccccc4)c3)cn12 [HS-173] |  |  |  | 345.7 AU | 31987.4 AU |
| Cc1cn(-c2cc(NC(=O)c3ccc(C)c(Nc4nccc(-c5cnccn5)n4)c3)cc(C(F)(F)F)c2)cn1 [Radotinib(IY-5511)] |  |  |  | 11726.8 AU | 29413.0 AU |
| COC(=O)C1=C(C)NC(C)=C(C(=O)O[C@@H]2CCCN(Cc3ccccc3)C2)[C@@H]1c1cccc([N+](=O)[O-])c1.Cl (racemic) [Benidipine HCl] |  |  |  | 130.4 AU | 31078.1 AU |
| CCCCCCCCc1ccc(CCC(N)(CO)CO)cc1 [Fingolimod (FTY720)] |  |  |  | 0.0 AU | 13731.4 AU |
| O.O.O.O=C(O)c1ncccc1O.O=C(O)c1ncccc1O.[O]=[V] [VO-Ohpic trihydrate] |  |  |  | 28838.2 AU | 7631.3 AU |
| KN-92 |  |  |  | 8269.0 AU | 30018.5 AU |
| CO[C@H]1CC[C@H](N2C(=O)CNc3ncc(-c4ccc(C(C)(C)O)nc4)nc32)CC1 [CC-223] |  |  |  | 6587.4 AU | 41988.9 AU |
| N#Cc1c(-c2ccccc2)cc(-c2cc(Br)ccc2O)[nH]c1=O [TCS PIM-1 1] |  |  |  | 1935.2 AU | 16463.0 AU |

| Molecule | EC50 [1] | Selectivity index [1] | EC50 (Calu-3 cells) | dsRNA signal, AU High [2] | dsRNA signal, AU Low [2] |
| --- | --- | --- | --- | --- | --- |
| O=C1NC(=NCc2cccs2)S/C1=C\c1ccc2ncccc2c1 [Ro 3306] |  |  |  | 2807.1 AU | 25048.4 AU |
| O=C(COc1ccc(Cl)cc1)NC1CCC(NC(=O)COc2ccc(Cl)cc2)CC1 (single isomer, unassigned) [ISRIB (trans-isomer)] |  |  |  | 6980.3 AU | 60689.2 AU |
| COc1cc(O)c2c(c1)oc(=O)c1c3cc(O)c(O)cc3oc21 [Wedelolactone] |  |  |  | 9001.4 AU | 16105.5 AU |
| Cc1cnc(NC(=O)Nc2cc(Br)c(C)cc2OC[C@@H]2CNCCO2)cn1 [LY2603618] |  |  |  | 13995.2 AU | 6197.3 AU |
| COc1ccc(-c2cnc3c(-c4cccc5ncccc45)cnn3c2)cc1 [ML347] |  |  |  | 0.0 AU | 58224.3 AU |
| Cn1nccc1Nc1nccc(-c2ccn([C@H](CO)c3ccc(Cl)c(F)c3)c(=O)c2)n1 [GDC-0994] |  |  |  | 4912.8 AU | 7646.0 AU |
| COc1cc(N2CCC(N)CC2)ccc1Nc1ncc(Cl)c(-c2c[nH]c3ccccc23)n1 [AZD-3463] |  |  |  | 9390.1 AU | 40804.7 AU |
| COc1cc(OC)c(/C=C/S(=O)(=O)Cc2ccc(OC)c(NCC(=O)O)c2)c(OC)c1 [Rigosertib (ON-01910,Estybon)] |  |  |  | 14175.0 AU | 4849.9 AU |
| O=C(Nc1nc2ccccc2n1CCN1CCOCC1)c1cccc([N+](=O)[O-])c1 [IRAK-1-4 Inhibitor I] |  |  |  | 21347.7 AU | 22363.0 AU |
| AG-18 |  |  |  | 29672.3 AU | 14434.9 AU |
| CCn1c(-c2nonc2N)nc2c(C#CC(C)(C)O)ncc(OC[C@H]3CCCNC3)c21 [GSK690693] |  |  |  | 6007.3 AU | 39582.1 AU |
| O=C1NCCCc2c1oc1ccc(O)cc21 [CID 755673] |  |  |  | 9033.3 AU | 7582.1 AU |
| Oc1ccc(Nc2nc(-c3ccc(Cl)cc3)cs2)cc1 [SKI II] |  |  |  | 31334.0 AU | 21341.0 AU |
| CCN1/C(=C/C(C)=O)Sc2ccc(OC)cc21 [TG003] |  |  |  | 1126.7 AU | 61445.9 AU |
| CC1=CC(=O)C(C(C)C)=C/C1=N/OC(=O)c1ccccc1C [Poloxin] |  |  |  | 3268.7 AU | 59035.4 AU |
| O=C(NC1CCOCC1)c1ccc(-c2cc(-c3c[nH]nc3-c3ccccn3)ccn2)cc1 [GW788388] |  |  |  | 8820.5 AU | 0.0 AU |
| O=C(O)c1ccccc1Nc1cccc(C(F)(F)F)c1 [Flufenamic acid] |  |  |  | 29762.4 AU | 15182.6 AU |
| NC(=O)c1cccc(-c2cc(Nc3ccc(OC(F)(F)F)cc3)ncn2)c1 [GNF 2] |  |  |  | 2578.1 AU | 60765.8 AU |
| COc1cc2nccc(Oc3ccc(NC(=O)C4(C(=O)Nc5ccc(F)cc5)CC4)cc3)c2cc1OC.O=C(O)C[C@H](O)C(=O)O [Cabozantinib malate (XL184)] |  |  |  | 148.7 AU | 24276.1 AU |
| O=c1sn(-c2cccc3ccccc23)c(=O)n1Cc1ccccc1 [Tideglusib] |  |  |  | 352.7 AU | 1603.7 AU |
| C[C@@H](N)[C@H]1CC[C@H](C(=O)Nc2ccncc2)CC1 [Y-27632] |  |  |  | 3508.5 AU | 46665.7 AU |
| Cn1cc(-c2ccc3nnc(C(F)(F)c4ccc5ncccc5c4)n3n2)cn1 [JNJ-38877605] |  |  |  | 9345.0 AU | 32468.4 AU |
| BrC1C(Br)C(Br)C(Br)C(Br)C1Br (stereo not shown) [1,2,3,4,5,6-Hexabromocyclohexane] |  |  |  | 58.9 AU | 23091.7 AU |
| CN1CCN(S(=O)(=O)c2ccc(-c3cnc(N)c(C(=O)Nc4cccnc4)n3)cc2)CC1 [AZD2858] |  |  |  | 10014.5 AU | 6684.6 AU |
